A short description of data set [1]: Cholecalciferol phosphate disodium patch release. In kind it is in vitro ADME. The settings on record: control solution in PG, 24 h. The procedure: The patch was produced by mixing 82.9 μL of the adhesive, 1.92 μL of PG and the 4 mg of cholecalciferol phosphate disodium (Table 39). The patch formulation was cast into an in-house rectangular tray measuring 10 by 10 cm. The mixture was left to cure for 3-4 h. The laminate was then added to the adhesive and circles of 34 mm diameter were cut using a dye cutting machine and the release of the cholecalciferol was assessed using the Franz diffusion cells fitted with a nylon membrane over 24 h. A nylon membrane (0.20 μm) was glued to the receiver chamber and no donor chamber was employed to allow the patch to be placed directly on the surface of the nylon membrane. A cholecalciferol phosphate disodium saturated PG solution was used as a comparator with the standard Franz cell set-up previously described. The receiver fluid was 80% PG 20% water for both release testing from the solution and the patch.

Data set [2] is described as follows: Chemical stability of cholecalciferol and cholecalciferol phosphate disodium in donor, extraction and receiver fluids. The class given is physicochemical. The settings on record: for chemical stability: 37° C., 24 h. The method, then: To assess the chemical stability of the test agents in the liquids in which they were to be dissolved for the skin permeation experiments, 1 mg/mL solutions of cholecalciferol and cholecalciferol phosphate disodium in propylene glycol (PG) were prepared and incubated at 37° C. for 24 h. In addition, 100 μg/mL cholecalciferol in 50:50 PG:ethanol mixture, 100 μg/mL cholecalciferol phosphate disodium in 90:10 methanol:water mixture as well as and in 50% PG 40% Methanol: 10% water pH 3.2 (90:10) were also incubated at 37° C. for 24 hours.

Turning to cholecalciferol phosphate disodium, the “active release from PG solution, percent of applied active” value in data set [1] is on record as 17%. In data set [1] (nylon membrane), the “active release from PG solution” value was determined as 512±17 μg/cm^2. Further, the values for the chemical stability in data set [2] (PG), in data set [2] (extraction fluid 90:10 methanol:water) and in data set [2] (receiver fluid 50:50 PG:mobile phase (90:10 methanol:water pH 3.2)) were 86±5.7%, 98±1.6% and 71±2.7%, respectively. Moreover, the “chemical stability (in words)” value in data set [2] (conclusions) is recorded as “indication of chemical instability”.

The values are drawn from patent publication US20260306421A1, “SYSTEMS AND METHODS FOR TRANSDERMAN PATCH DELIVERY” (VITAMAX PATCH WHOLESALER LLC, priority 2022, published 2026).
